Legend:
cats = test: Randomized, double-blind, placebo-controlled clinical study: transportation and veterinary visit anxiety and fear in cats; format: in vivo, cat; conditions: 5 mg/kg orally
Method: A randomized, double-blind, placebo-controlled parallel-group, multicenter clinical study was conducted for evaluating the efficacy and safety of pregabalin for the treatment or prevention of transportation and veterinary visit anxiety and fear in cats. Cats were randomised to receive either 5 mg/kg (n=108) of pregabalin or placebo (n=101) orally as a single dose approximately 90 minutes before transportation to the veterinary clinic.
The study had two primary efficacy variables. The first primary variable was the owner's assessment of the treatment effect based on the cat's stress, anxiety and/or fear during transportation in a car. The second primary variable was the investigator's assessment of the treatment effect based on the cat's stress, anxiety and/or fear during clinical examination at the veterinary clinic. Both were assessed using a numerical rating scale with the scores 1-5.

[1] = Water solubility of pregabalin as the function of pH at 5° C.; format: physicochemical
Method: Water solubility at 5° C. of pregabalin as such and with the addition of 2.0 mg/ml sodium benzoate was measured as the function of pH.

[2] = single dose approximately 90 minutes before transportation

For CC(C)C[C@H](CN)CC(=O)O [pregabalin], the Ataxia and sedation (cats; single dose) was “did not produce marked ataxia or excessive sedation”, the “Investigator's assessment of treatment effect during clinical examination, % of cats, Score 1 Excellent” value (cats; [2]) was 14.3% and the “Investigator's assessment of treatment effect during clinical examination, % of cats, Score 2 Good” value (cats; [2]) was 41.0%. For the same molecule, the “Investigator's assessment of treatment effect during clinical examination, % of cats, Score 3 Fair” value (cats; [2]) was 27.6%, the “Investigator's assessment of treatment effect during clinical examination, % of cats, Score 4 Poor” value (cats; [2]) was 10.5% and the “Investigator's assessment of treatment effect during clinical examination, % of cats, Score 5 Very poor” value (cats; [2]) was 6.7%. The “Owner's assessment of treatment effect during transportation, % of cats, Score 1 Excellent” value (cats; [2]) was 17.1%, the “Owner's assessment of treatment effect during transportation, % of cats, Score 2 Good” value (cats; [2]) was 34.3% and the “Owner's assessment of treatment effect during transportation, % of cats, Score 3 Fair” value (cats; [2]) was 23.8%. For the same molecule, the “Owner's assessment of treatment effect during transportation, % of cats, Score 4 Poor” value (cats; [2]) was 14.3%, the “Owner's assessment of treatment effect during transportation, % of cats, Score 5 Very poor” value (cats; [2]) was 10.5% and the “Water solubility as the function of pH” value ([1]; pregabalin as such, when pH is lower than about 4.4, FIG. 1) was “increased significantly”. The “Physical stability (precipitation of pregabalin)” value ([1]; with addition of 2.0 mg/ml sodium benzoate, FIG. 1) was “further improved the physical stability”.
